Experimental data reported in patent US8846620B2, “Resorption enhancers as additives to improve the oral formulation of non-anticoagulant sulfated polysaccharides” (Baxter International Inc., priority 2011, dated 2014).

How the values were obtained:
[1] = test system: CaCo-2 cell model; assay: CaCo-2 cell model bioavailability / resorption screening of NASPs with permeation enhancers; format: in vitro ADME, human; conditions: for Average Percent Resorption at 8 hours: Table 5; for basolateral concentrations in the presence of a gastrointestinal epithelial barrier permeation enhancer: compared with absence of enhancer, figures
Protocol: (§1) The bioavailability of NASPs in combination with gastrointestinal epithelial barrier permeation enhancers of interest were studied using the CaCo-2 cell model screening. This method utilizes a human colon carcinoma cell line that expresses a wide range of transporter proteins on its cell membranes. Cell layers are grown on a membrane surface that separates two compartments (24-well plate). An example of the experimental setup for these experiments is illustrated in FIG. 1. Selected NASP and gastrointestinal epithelial barrier permeation enhancer samples were dissolved in RPMI cell medium at a concentration of 1 mg/mL and applied onto the cells in the apical compartment. Cells were incubated at 37° C. in 5% CO2. Medium samples were removed from the basolateral and apical compartment at different time points. The condition of the cell layer was monitored by measurement of the transepithelial electrical resistance (TEER). Samples were analyzed by thrombin generation assay (CAT). NASP concentration was calculated based on activity from CAT assay. Experimental details of thrombin generation assays and other blood coagulation assays are described in U.S. patent application Ser. No. 11/140,504, filed on May 27, 2005, now U.S. Pat. No. 7,767,654, and U.S. patent application Ser. No. 13/006,396, filed on Jan. 13, 2011, the disclosures of which is herein incorporated by reference.
All NASP and gastrointestinal epithelial barrier permeation enhancer samples were diluted in such a way that the sample concentration was in the range of increasing procoagulant activity. Based on the initial load concentration values, apical and basolateral concentrations were determined at 2 hour increments (e.g., 2 hours, 4 hours, 6 hours, 8 hours, including 24 hours). Based on the determined basolateral concentrations, the percent resorption was determined for each combination of compounds (i.e., NASP and gastrointestinal epithelial barrier permeation enhancers).
FIGS. 4-8 illustrate resorption of some natural NASPs of interest in Caco-2 cell models as determined by TGA and liquid chromatography/mass spectrometry in combination with different gastrointestinal epithelial barrier permeation enhancers. FIGS. 9 and 10 illustrate resorption of some synthetic NASPs of interest in Caco-2 cell models as determined by TGA and liquid chromatography/mass spectrometry in combination with different gastrointestinal epithelial barrier permeation enhancers.

[2] = test system: CaCo-2 cell layer; assay: Condition of the cell layer by transepithelial electrical resistance (TEER) in CaCo-2 screening; format: cell-based, human
Protocol: as §1, with “reference. […]” for “reference.”

[3] = Bromelain/Chitosan 0.5 mg/mL: 3%
[4] = in the presence of bromelain at 8 hours
[5] = in the presence of deoxycholate at 8 hours

Substance | Average Percent Resorption at 8 hours ([1]; Bromelain 0.5 mg/mL) [%] | Average Percent Resorption at 8 hours [1, 3] [%] | Average Percent Resorption at 8 hours ([1]; Chitosan 3%) [%] | Average Percent Resorption at 8 hours ([1]; Deoxycholate 0.08%) [%] | Average Percent Resorption at 8 hours ([1]; No enhancer) [%] | Average Percent Resorption at 8 hours ([1]; Deoxycholate 0.06%) [%] | Average Percent Resorption at 8 hours ([1]; Sodium Caprate 12 mM) [%] | basolateral concentrations in the presence of a gastrointestinal epithelial barrier permeation enhancer [1] | resorption in Caco-2 cell models [1, 4] | resorption in Caco-2 cell models ([1]; in the presence of chitosan) | resorption in Caco-2 cell models [1, 5] | resorption in Caco-2 cell models ([1]; in the presence of sodium caprate) | transepithelial electrical resistance after removal of the permeation enhancer and the NASP ([2]; after removal of enhancer and maltopentaose) | resorption in Caco-2 cell models ([1]; in the presence of sodium caprate at 8 hours) | transepithelial electrical resistance after treatment with the permeation enhancer alone ([2]; enhancer alone, no NASP)
Sulfated 6-Carboxyicodextrin [Sulfated 6-Carboxyicodextrin 14 kD] | 17.7 | 44.5 | 5.4 | 27.2 | 3.8 | – | – | – | – | – | – | – | – | – | –
Sulfated 6-Carboxyicodextrin [Sulfated 6-Carboxyicodextrin 24 kD] | 10.0 | 36.8 | 2.6 | 14.7 | 1.6 | 4.9 | – | – | – | – | – | – | – | – | –
Sulfated Maltopentose | 48.6 | 158.8 | 35.7 | 113.2 | 0 | 67.4 | 13.1 | increased | increased substantially | strong increased resorption | increased substantially | strong increased resorption | increased | – | –
Sulfated β-cyclodextrin | 24.7 | 59.8 | 15.6 | 36.1 | 0 | 20.6 | 19.3 | increased | increased substantially | – | increased substantially | – | – | increased substantially | –
bromelain | – | – | – | – | – | – | – | – | – | – | – | – | – | – | recovery of the transepithelial electrical resistance
